Experimental data reported in patent US9163024B2, “Tris salts of 8-chloro-3-pentyl-3,7-dihydro-1H-purine-2,6-dione” (GlaxoSmithKline LLC, priority 2008, dated 2015).
Structures can show the parent of a compound that is named as a salt.

Columns and labels:
[1] = physical stability: conversion to a hydrated form during aqueous based processing (wet granulation); type: physicochemical; settings: during essential manufacturing processes / aqueous based processing steps, e.g. wet granulation; tris salt compared to free acid
solubility = type: physicochemical; settings: tris salt compared to free acid
absorption (Cmax, Tmax) = type: in vivo; settings: tris salt compared to free acid

physical stability (remains in original form, no conversion by hydration) [1]	solubility (solubility)	Cmax (absorption (Cmax, Tmax))	Tmax (absorption (Cmax, Tmax); indicates faster absorption)	Structure (SMILES)
enhanced physical stability	higher solubility than the free acid	increased	decreased	CCCCCn1c(=O)[nH]c(=O)c2[nH]c(Cl)nc21 [tris salt, 8-chloro-3-pentyl-3,7-dihydro-1H-purine-2,6-dione trishydroxymethylaminomethane]
readily convert to a hydrated form				CCCCCn1c(=O)[nH]c(=O)c2[nH]c(Cl)nc21 [free acid, 8-chloro-3-pentyl-3,7-dihydro-1H-purine-2,6-dione]
